The values below are quoted from earlier work in US20060153925A1, “Novel solid pharmaceutical composition comprising amisulpride” (Sanofi-Aventis, priority 2003, published 2006).

The conditions of this data set: administered orally; attributed to partial gastrointestinal absorption.

Take `CCN1CCCC1CNC(=O)c1cc(S(=O)(=O)CC)c(N)cc1OC` (racemic) [amisulpride, 4-amino-N-[(1-ethyl-2-pyrrolidin-yl)methyl]-5-(ethylsulfonyl)-2-methoxybenzamide]: the bioavailability entry is “about 48%”.
